Experimental findings from ChEMBL document CHEMBL1151193, “Ancistrotanzanine C and related 5,1'- and 7,3'-coupled naphthylisoquinoline alkaloids from Ancistrocladus tanzaniensis” (J Nat Prod, 2004) are described below.

In series [1] the test system is Plasmodium falciparum. Nature of the series: Antiplasmodial activity against chloroquine-resistant Plasmodium falciparum K1. The series is classed as functional, organism-based.
In series [2] the test system is Plasmodium falciparum. Nature of the series: Antiplasmodial activity against chloroquine-sensitive Plasmodium falciparum 3D7. The series is classed as functional, organism-based.
The subject of the next series is Trypanosoma cruzi. Nature of the series: Antitrypanosomal activity against Trypanosoma cruzi. The series is classed as functional, organism-based.
In series [3] the test system is Trypanosoma brucei rhodesiense. Nature of the series: Antitrypanosomal activity against Trypanosoma brucei rhodesiense. The series is classed as functional, organism-based.
In another series the test system is Leishmania donovani. The experiment in a line: Antileishmanial activity against Leishmania donovani. The series is classed as functional, organism-based.
The nature of series [4]: Cytotoxicity against rat L6 cells. The following applies: read-out: MIC. The series is classed as cell-based.
Another series deals with L6. The experiment in a line: Cytotoxicity against Leishmania donovani infected rat L6 cells. The series is classed as cell-based.

Values after ≈ are worked out from the molar mass of the structure shown. Some results are limits rather than exact numbers.

For the molecule `COc1cc2c(c(OC)c1-c1c(C)cc3cccc(OC)c3c1O)C(C)=N[C@@H](C)C2` [ANCISTROCLADIDINE], the IC50 with Plasmodium falciparum [1] is 0.3 µg/mL (≈ 0.74 µM); in the series on Plasmodium falciparum [2] it was 1.9 µg/mL (≈ 4.69 µM); in the series with Trypanosoma cruzi, 23.4 µg/mL (≈ 57.7 µM); in series [3] it was 2 µg/mL (≈ 4.93 µM); in the series on Leishmania donovani, 2.9 µg/mL (≈ 7.15 µM). Further, the MCC in series [4] is 28.3 µg/mL.

Regarding `COc1c(-c2c(C)cc3cccc(OC)c3c2O)c(O)cc2c1[C@@H](C)N(C)[C@@H](C)C2` [ANCISTROTANZANINE C], the IC50 is 0.1 µg/mL (≈ 0.245 µM) in the series on Plasmodium falciparum [1], 4.2 µg/mL (≈ 10.3 µM) in the series on Plasmodium falciparum [2], 14 µg/mL (≈ 34.4 µM) in the series with Trypanosoma cruzi and 1.3 µg/mL (≈ 3.19 µM) in series [3]. Further, the MCC in series [4] was 40.7 µg/mL. Further, the Activity entry in the series with L6 was “Toxic”.

Molecule `Nc1nc(N)nc(Nc2ccc([As]3SCC(CO)S3)cc2)n1` (configuration not stated) [MELARSOPROL] showed an IC50 in series [3] of 0.0031 µg/mL.

Turning to `COc1cc(OC)c(-c2c(C)cc(OC)c3c(OC)cccc23)c2c1C(C)=N[C@@H](C)C2`, the IC50 in the series on Plasmodium falciparum [1] came out at 2.2 µg/mL (≈ 5.24 µM); in the series with Plasmodium falciparum [2], 5.4 µg/mL (≈ 12.9 µM); with Trypanosoma cruzi it was 60.5 µg/mL (≈ 144 µM); in series [3], 5.2 µg/mL (≈ 12.4 µM); in the series on Leishmania donovani it was 30 µg/mL (≈ 71.5 µM). Also, the MCC in series [4] is above 90 µg/mL.

In turn, `O=C(Cn1ccnc1[N+](=O)[O-])NCc1ccccc1` [BENZNIDAZOLE] yielded an IC50 with Trypanosoma cruzi of 0.29 µg/mL (≈ 1.11 µM).

On to `COc1cc(OC)c2c(c1-c1c(C)cc(OC)c3c(OC)cccc13)C[C@H](C)N(C)[C@H]2C` [O,N-Dimethylancistrocladine], for which the IC50 is 3.6 µg/mL (≈ 8.27 µM) with Plasmodium falciparum [1], 34.1 µg/mL (≈ 78.3 µM) in the series with Plasmodium falciparum [2], 65.3 µg/mL (≈ 150 µM) in the series on Trypanosoma cruzi and 5.4 µg/mL (≈ 12.4 µM) in series [3]. In addition, the MCC in series [4] was 42.9 µg/mL. Besides, the Activity entry in the series with L6 was “Toxic”.

As to `COc1cc2c(c(OC)c1-c1c(C)cc3cccc(OC)c3c1O)[C@@H](C)N(C)[C@@H](C)C2` [ANCISTROTECTORINE], the IC50 with Plasmodium falciparum [1] is 0.7 µg/mL (≈ 1.66 µM); in the series on Plasmodium falciparum [2], 9.1 µg/mL (≈ 21.6 µM); with Trypanosoma cruzi it was 4.3 µg/mL (≈ 10.2 µM); in series [3], 4.3 µg/mL (≈ 10.2 µM). Besides, the MCC in series [4] was 19.9 µg/mL. Moreover, in the series with L6, the Activity entry was “Toxic”.

Broadly, the IC50 is the concentration that inhibits the measured activity by half. A lower IC50 goes with higher potency.
